According to patent US20160213742A1, “COMPOSITIONS AND METHODS FOR THE TREATMENT OF FUNGAL INFECTIONS” (priority 2013, published 2016):
In brackets after ≈: the same amount, converted by molar mass. Where two headings read alike, the source gives them in different places.

How the values were obtained:
Format in all cases: cell-based
[1] = system: C. parapsilosis ATCC 22019; test: microbe, parasite or virus in culture
Description: (§1) The test organisms consisted of strains from the Micromyx collection. Reference isolates were originally received from the American Type Culture Collection (ATCC; Manassas, Va.). Organisms received at Micromyx were initially streaked for isolation on Sabouraud dextrose or potato dextrose agar. Colonies were picked by swab from the medium and resuspended in the appropriate broth containing cryoprotectant. The suspensions were aliquoted into cryogenic vials and maintained at −80° C. Prior to testing, Candida isolates were streaked from the frozen vials on Sabouraud dextrose agar. The yeast isolates were incubated at overnight at 35° C. before use. The fungal isolates were incubated at least 7 days on Sabouraud dextrose agar slants at 35° C. before harvesting.
(§2) Isolates were tested in RPMI medium (Catalog No. SH30011.04; Lot No. AWA92121B; HyClone Labs, Logan, Utah) which was prepared according to CLSI guidelines. The pH of the medium was adjusted to 7.0 with 1 N NaOH. The medium was sterile filtered using a 0.2 μm PES filter and stored at 4° C. until used.
(§3) The MIC assay method employed automated liquid handlers to conduct serial dilutions and liquid transfers. Automated liquid handlers included the Multidrop 384 (Labsystems, Helsinki, Finland), Biomek 2000 and Biomek FX (Beckman Coulter, Fullerton Calif.). The wells in columns 2-12 in standard 96-well microdilution plates (Costar 3795) were filled with 150 μl of the correct diluent (50% DMSO for investigational compounds, 100% DMSO for comparator compounds). These would become the mother plates' from which ‘daughter’ or test plates would be prepared. Stocks were diluted to 40× the desired top concentration in the test plates in the indicated solvent, and 300 μL of the 40× stock was dispensed into the appropriate well in Column 1 of the mother plates. The Biomek 2000 was used to make serial serial 2-fold dilutions through Column 11 in the “mother plate”. The wells of Column 12 contained no drug and served as the organism growth control wells.
(§4) The daughter plates were loaded with 185 μL per well of RPMI described above using the Multidrop 384. The daughter plates were prepared using the Biomek FX which transferred 5 μL of drug solution from each well of a mother plate to the corresponding well of the daughter plate in a single step.
(§5) A standardized inoculum of each organism was prepared. For Candida, colonies were picked from the streak plate and a suspension was prepared in RPMI medium equal to a 0.5 McFarland standard, then diluted 1:100 in RPMI and transferred to compartments of sterile reservoirs divided by length (Beckman Coulter). For the Aspergillus isolates, previously prepared and quantitated suspensions were used to make dilutions in RPMI to reach 20× the final concentration. These dilutions were also transferred to compartments of sterile reservoirs divided by length (Beckman Coulter). The final concentration of the Aspergillus isolates was approximately 0.2-2.5×10^4 CFU/mL.
(§6) The Biomek 2000 was used to inoculate the plates. Daughter plates were placed on the Biomek 2000 work surface reversed so that inoculation took place from low to high drug concentration. The Biomek 2000 delivered 10 μL of standardized inoculum into each well. Thus, the wells of the daughter plates ultimately contained 185 μL of RPMI, 5 μL of drug solution, and 10 μL of inoculum. The final concentration of DMSO in the test well was 2.5% for the evaluated comparators and 1.25% for the investigational agents.
(§7) Plates were stacked 3 high, covered with a lid on the top plate, placed into plastic bags, and incubated at 35° C. for approximately 24-48 hr prior to reading. Plates were read when inoculum was confluent in growth wells. Plates were viewed from the bottom using a plate viewer. […] MICs were read where visible growth of the organism was inhibited. MECs were read where the growth shifted to a small, rounded, compact hyphal form as compared to the hyphal growth seen in the growth control well.

C. glabrata ATCC 90030 = test: microbe, parasite or virus in culture
Description: as §1, §2, §3, §4, §5, §6, §7

C. albicans ATCC 90028 = test: microbe, parasite or virus in culture
Description: as §1, §2, §3, §4, §5, §6, §7

C. krusei ATCC 14243 = test: microbe, parasite or virus in culture
Description: as §1, §2, §3, §4, §5, §6, §7

A. fumigatus MYA-3626 = test: MEC assay (Example 31); settings: RPMI pH 7.0, 35° C., 24-48 hr
Description: as §1, §2, §3, §4, §5, §6, §7

A. fumigatus MYA-4609 = test: MEC assay (Example 31); settings: RPMI pH 7.0, 35° C., 24-48 hr
Description: as §1, §2, §3, §4, §5, §6, §7

A. fumigatus ATCC 13073 = test: MEC assay (Example 31); settings: RPMI pH 7.0, 35° C., 24-48 hr
Description: as §1, §2, §3, §4, §5, §6, §7

A. flavus MX 5948 = test: MEC assay (Example 31); settings: RPMI pH 7.0, 35° C., 24-48 hr
Description: as §1, §2, §3, §4, §5, §6, §7

A. fumigatus MX 5944 = test: MEC assay (Example 31); settings: RPMI pH 7.0, 35° C., 24-48 hr
Description: as §1, §2, §3, §4, §5, §6, §7

[2] = system: Neutrophils purified from human peripheral blood; test: Human Neutrophil Transwell Migration Assay; settings: 37° C., 45 minutes, % of the maximum migration possible
Source text: Neutrophils were purified from human peripheral blood utilizing PolymorphPrep. Red blood cells were lysed with a lysis buffer and the cells were washed, counted and resuspended in assay buffer. Neutrophils (approximately 50,000 to 100,000 in number) were placed over 5-micon pore sized transwell plates in 24-well format with test compounds in the bottom chamber of each well. A negative control of media alone in the bottom chamber was set up in triplicate. A positive control where the neutrophils were added directly to the bottom well was set up in triplicate.
The plates were incubated at 37° C. for 45 minutes to allow for migration. After this time, migration was confirmed visually and then an aliquot (⅙^th of total cells) from each well was taken for ATP detection via luminescence with ATPlite (PerkinElmer) to quantify the number of migrated cells. The averaged reading for random migration detected in the negative control was subtracted from all readings to obtain the corrected migration number. These numbers were then divided by the averaged reading from the positive control to get the % Neutrophil Migration of the maximum migration possible.

| Compound | MIC ([1]; ATCC 22019, pH 7) | MIC (C. glabrata ATCC 90030; ATCC 90030, pH 7) | MIC (C. albicans ATCC 90028; ATCC 90028, pH 7) | MIC (C. krusei ATCC 14243; ATCC 14243, pH 7) | MEC (A. fumigatus MYA-3626) | MEC (A. fumigatus MYA-4609) | MEC (A. fumigatus ATCC 13073) | MEC (A. flavus MX 5948) | MEC (A. fumigatus MX 5944) | % Neutrophil Migration ([2]; conc 0.001 μg/mL) | % Neutrophil Migration ([2]; conc 0.01 μg/mL) | % Neutrophil Migration ([2]; conc 0.1 μg/mL) | % Neutrophil Migration ([2]; conc 1 μg/mL) | % Neutrophil Migration ([2]; conc 10 μg/mL) | also measured |
| --- | --- | --- | --- | --- | --- | --- | --- | --- | --- | --- | --- | --- | --- | --- | --- |
| CC[C@H](C)C[C@H](C)CCCCCCCCC(=O)N[C@H]1C[C@@H](O)[C@@H](NCCN)NC(=O)[C@@H]2[C@@H](O)CCN2C(=O)[C@H]([C@H](O)CCNC(=O)[C@H](CO)NC(=O)[C@H](CC(C)C)NC(=O)[C@H](CCSC)NC=O)NC(=O)[C@H]([C@H](O)[C@@H](O)c2ccc(O)cc2)NC(=O)[C@@H]2C[C@@H](O)CN2C(=O)[C@H]([C@@H](C)O)NC1=O [Compound 29] | >32 µg/mL | 8 µg/mL (≈ 5.51 µM) | 2 µg/mL (≈ 1.38 µM) | 32 µg/mL (≈ 22 µM) | 0.25 µg/mL | 0.25 µg/mL | 0.5 µg/mL | 0.25 µg/mL | 0.25 µg/mL | 1.4% | 0.1% | 2.2% | 11.0% | 8.4% | – |
| CC[C@H](C)C[C@H](C)CCCCCCCCC(=O)N[C@H]1C[C@@H](O)[C@@H](NCCN)NC(=O)[C@@H]2[C@@H](O)CCN2C(=O)[C@H]([C@H](O)CCNC(=O)[C@H](CC(C)C)NC(=O)[C@H](CCSC)NC=O)NC(=O)[C@H]([C@H](O)[C@@H](O)c2ccc(O)cc2)NC(=O)[C@@H]2C[C@@H](O)CN2C(=O)[C@H]([C@@H](C)O)NC1=O [Compound 27] | 16 µg/mL (≈ 11.7 µM) | 2 µg/mL (≈ 1.46 µM) | 2 µg/mL (≈ 1.46 µM) | 8 µg/mL (≈ 5.86 µM) | 0.25 µg/mL | 0.12 µg/mL | 8 µg/mL | 0.06 µg/mL | 0.12 µg/mL | −1.6% | 3.4% | −4.2% | −1.6% | 37.0% | – |
| CC[C@H](C)C[C@H](C)CCCCCCCCC(=O)N[C@H]1C[C@@H](O)[C@@H](NCCNC(=O)C(Cc2ccccc2)NC(=O)C(CC(C)C)NC(=O)C(CCSC)NC(=O)Nc2ccc(Cl)cc2)NC(=O)[C@@H]2[C@@H](O)CCN2C(=O)[C@H]([C@H](O)CCN)NC(=O)[C@H]([C@H](O)[C@@H](O)c2ccc(O)cc2)NC(=O)[C@@H]2C[C@@H](O)CN2C(=O)[C@H]([C@@H](C)O)NC1=O (single isomer, unassigned) [Compound 13b] | – | – | – | – | 0.25 µg/mL | 0.12 µg/mL | 0.25 µg/mL | 0.12 µg/mL | 0.25 µg/mL | 6.2% | 26.1% | 11.5% | −8.5% | −7.6% | MIC ([1]; C. parapsilosis ATCC 22019, RPMI pH 7.0, 35° C., 24-48 hr): 32 µg/mL (≈ 19.5 µM); MIC (C. glabrata ATCC 90030; C. glabrata ATCC 90030, RPMI pH 7.0, 35° C., 24-48 hr): 8 µg/mL (≈ 4.88 µM); MIC (C. albicans ATCC 90028; C. albicans ATCC 90028, RPMI pH 7.0, 35° C., 24-48 hr): 2 µg/mL (≈ 1.22 µM); MIC (C. krusei ATCC 14243; C. krusei ATCC 14243, RPMI pH 7.0, 35° C., 24-48 hr): 16 µg/mL (≈ 9.77 µM) |
| CC[C@H](C)C[C@H](C)CCCCCCCCC(=O)N[C@H]1C[C@@H](O)[C@@H](NCCNC(=O)CCNC(=O)[C@H](Cc2ccccc2)NC(=O)[C@H](CC(C)C)NC(=O)[C@H](CCSC)NC=O)NC(=O)[C@@H]2[C@@H](O)CCN2C(=O)[C@H]([C@H](O)CCN)NC(=O)[C@H]([C@H](O)[C@@H](O)c2ccc(O)cc2)NC(=O)[C@@H]2C[C@@H](O)CN2C(=O)[C@H]([C@@H](C)O)NC1=O [Compound 4] | 32 µg/mL (≈ 20.2 µM) | 4 µg/mL (≈ 2.53 µM) | 2 µg/mL (≈ 1.26 µM) | 8 µg/mL (≈ 5.05 µM) | 2 µg/mL | 1 µg/mL | 1 µg/mL | 1 µg/mL | 1 µg/mL | 3.8% | 88.0% | 15.1% | −9.8% | −11.2% | – |
| CC[C@H](C)C[C@H](C)CCCCCCCCC(=O)N[C@H]1C[C@@H](O)[C@@H](NCCN)NC(=O)[C@@H]2[C@@H](O)CCN2C(=O)[C@H]([C@H](O)CCNC(=O)[C@H](CCSC)NC=O)NC(=O)[C@H]([C@H](O)[C@@H](O)c2ccc(O)cc2)NC(=O)[C@@H]2C[C@@H](O)CN2C(=O)[C@H]([C@@H](C)O)NC1=O [Compound 26] | 4 µg/mL (≈ 3.19 µM) | 1 µg/mL (≈ 0.798 µM) | 0.25 µg/mL (≈ 0.2 µM) | 4 µg/mL (≈ 3.19 µM) | ≦0.03 μg/mL | ≦0.03 μg/mL | ≦0.03 μg/mL | ≦0.03 μg/mL | ≦0.03 μg/mL | −3.4% | −3.4% | −5.1% | −4.1% | 15.7% | – |
| C[C@@H](c1ncncc1F)[C@](O)(Cn1cncn1)c1ccc(F)cc1F [voriconazole, reference compound] | – | – | – | – | 0.12 to 0.5 µg/mL | 0.25 to 0.5 µg/mL | 0.012-0.5^ μg/mL | 0.25 to 2 µg/mL | 0.12 to 0.25 µg/mL | – | – | – | – | – | MIC ([1]; Lodderomyces parapsilosis, ATCC22019, C. parapsilosis ATCC 22019, RPMI pH 7.0, 35° C., 24-48 hr, read-out: MIC): 0.03 to 0.06 µg/mL (≈ 0.0859 to 0.172 µM); MIC (C. glabrata ATCC 90030; Nakaseomyces glabratus, ATCC90030, C. glabrata ATCC 90030, RPMI pH 7.0, 35° C., 24-48 hr, read-out: MIC): 0.12 to 0.25 µg/mL (≈ 0.344 to 0.716 µM); MIC (C. albicans ATCC 90028; Candida albicans, ATCC90028, C. albicans ATCC 90028, RPMI pH 7.0, 35° C., 24-48 hr, read-out: MIC): 0.06 to 0.5 µg/mL (≈ 0.172 to 1.43 µM); MIC (C. krusei ATCC 14243; Pichia kudriavzevii, ATCC14243, C. krusei ATCC 14243, RPMI pH 7.0, 35° C., 24-48 hr, read-out: MIC): 0.25 to 1 µg/mL (≈ 0.716 to 2.86 µM) |
